In one test the test system is E. coli (Gram-negative). Nature of the test: Antibacterial activity, broth microdilution method. The class given is cell-based. The conditions noted are these: Escherichia coli, read-out: E. coli (Gram–ve) MIC.
Test [1] relates to S. aureus (Gram-positive). Nature of the test: Antibacterial activity, broth microdilution method. The format is cell-based. Conditions: Staphylococcus aureus, read-out: S. aureus (Gram +ve) MIC.
The next test concerns M. tuberculosis H37Rv. Description: Antitubercular activity, Microplate Alamar Blue test (MABA). The format is cell-based. Conditions: Mycobacterium tuberculosis.
For the next test, the target named is InhA (Mycobacterium tuberculosis, UniProt P9WGR1). Nature of the test: Enoyl ACP reductase (InhA) inhibition. The class given is biochemical.
InhA, sequence (P9WGR1 whole entry, looked up): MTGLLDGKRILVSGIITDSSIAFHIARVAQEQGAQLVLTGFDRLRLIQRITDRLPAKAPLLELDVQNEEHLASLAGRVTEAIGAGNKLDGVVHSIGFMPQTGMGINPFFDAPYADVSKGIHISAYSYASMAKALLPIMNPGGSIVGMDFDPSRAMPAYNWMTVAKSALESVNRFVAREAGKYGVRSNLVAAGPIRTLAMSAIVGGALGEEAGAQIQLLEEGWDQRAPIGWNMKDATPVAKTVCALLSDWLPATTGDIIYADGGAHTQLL
Another test deals with MtDHFR (Mycobacterium tuberculosis, UniProt P9WNX1). Nature of the test: biochemical. The format is biochemical. The conditions noted are these: for MtDHFR inhibition compared with trimethoprim: in words.
MtDHFR, sequence (P9WNX1 whole entry): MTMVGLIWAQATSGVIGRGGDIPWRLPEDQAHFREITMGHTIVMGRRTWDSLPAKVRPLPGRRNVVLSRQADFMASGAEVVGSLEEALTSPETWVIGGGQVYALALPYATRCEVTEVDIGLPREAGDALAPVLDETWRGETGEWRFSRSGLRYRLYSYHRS
Test [2] relates to Mammalian Vero cell-lines. Nature of the test: MTT-based cytotoxicity activity. The conditions noted are these: Chlorocebus sabaeus, means ± SEM of three independent experiments, read-out: IC50 MV cell-lines.
Test [3] has as its system A549 (lung adenocarcinoma) cell-lines. Description: MTT-based cytotoxicity activity. The format is cell-based. Conditions: Homo sapiens, means ± SEM of three independent experiments.

The record followed here is PMC11090339, “Synthesis, molecular docking study and biological evaluation of new pyrrole scaffolds as potential antitubercular agents for dual targeting of enoyl ACP reductase and dihydrofolate reductase” (PLOS ONE, 2024).

≈ marks a conversion by molar mass, not a printed value.

As usually defined, the MIC is the smallest concentration in the dilution series that meets the test's criterion for growth inhibition. The inhibition is the percentage by which the read-out fell short of the control. Lower therefore signals a response near the control. What is called IC50 is the concentration at which inhibition is half-maximal.

`O=C(O)c1cn(C2CC2)c2cc(N3CCNCC3)c(F)cc2c1=O` [Ciprofloxacin, reference compound]: the MIC (with E. coli (Gram-negative); in test [1]) was 2 µg/mL (≈ 6.04 µM) in each case.
Consider `O=C(COc1ccccc1)NNC(=O)c1ccc(-n2cccc2)cc1` [Compound 3a, N’-(2-phenoxyacetyl)-4-(1H-pyrrol-1-yl) benzohydrazide], for which the results for the MIC (in the test with M. tuberculosis H37Rv; in the test with E. coli (Gram-negative); in test [1]) were 12.5 µg/mL (≈ 37.3 µM), 6.25 µg/mL (≈ 18.6 µM) and 100 µg/mL (≈ 298 µM), respectively.
On to `Cc1ccc(OCC(=O)NNC(=O)c2ccc(-n3cccc3)cc2)cc1` [Compound 3b, 4-(1H-pyrrol-1-yl)-N’-(2-(p-tolyloxy)acetyl)benzohydrazide], for which the MIC amounted to 12.5 µg/mL (≈ 35.8 µM) against M. tuberculosis H37Rv, 6.25 µg/mL (≈ 17.9 µM) in the test with E. coli (Gram-negative) and 100 µg/mL (≈ 286 µM) in test [1].
For `O=C(COc1ccccc1O)NNC(=O)c1ccc(-n2cccc2)cc1` [Compound 3c, N’-(2-(2-hydroxyphenoxy)acetyl)-4-(1H-pyrrol-1-yl)benzohydrazide], the minimal inhibitory concentration (MIC) in the test with M. tuberculosis H37Rv was 3.12 µg/mL (≈ 8.88 µM); in the test with E. coli (Gram-negative), 3.12 µg/mL (≈ 8.88 µM); in test [1], 100 µg/mL (≈ 285 µM). 50 µM produced 46% inhibition on InhA. The IC50 on MtDHFR is 25 µM; in test [2], 223 ± 0.7 µM; in test [3], 224 ± 0.6 µM. Besides, at MtDHFR, the “MtDHFR inhibition compared with trimethoprim” value was “greater inhibition characteristics than trimethoprim”.
Regarding `Cc1ccc(OCC(=O)NNC(=O)c2ccc(-n3cccc3)cc2)c(C)c1` [Compound 3d, N’-(2-(2,4-dimethylphenoxy)acetyl)-4-(1H-pyrrol-1yl)benzohydrazide], the MIC against M. tuberculosis H37Rv was determined as 3.12 µg/mL (≈ 8.59 µM); in the test on E. coli (Gram-negative), 1.6 µg/mL (≈ 4.4 µM); in test [1] it was 100 µg/mL (≈ 275 µM). The same compound registered an inhibition at 50 µM against InhA of 48%. Further, the IC50 worked out at 32 µM on MtDHFR, 216 ± 0.4 µM in test [2] and 212 ± 0.4 µM in test [3]. The “MtDHFR inhibition compared with trimethoprim” value on MtDHFR is recorded as “greater inhibition characteristics than trimethoprim”.
`Cc1cccc(OCC(=O)NNC(=O)c2ccc(-n3cccc3)cc2)c1` [Compound 3e, 4-(1H-pyrrol-1-yl)-N’-(2-(m-tolyloxy)acetyl)benzohydrazide]: the MIC against M. tuberculosis H37Rv turned out to be 6.25 µg/mL (≈ 17.9 µM); in the test on E. coli (Gram-negative) it was 12.5 µg/mL (≈ 35.8 µM); in test [1], 100 µg/mL (≈ 286 µM).
For `O=C(COc1ccc(Cl)cc1)NNC(=O)c1ccc(-n2cccc2)cc1` [Compound 3f, N’-(2-(4-chlorophenoxy)acetyl)-4-(1H-pyrrol-1-yl)benzohydrazide], the MIC against M. tuberculosis H37Rv worked out at 6.25 µg/mL (≈ 16.9 µM); in the test on E. coli (Gram-negative), 12.5 µg/mL (≈ 33.8 µM); in test [1], 100 µg/mL (≈ 270 µM). The compound also displayed an IC50 against MtDHFR of 122 µM.
Consider `O=C(COc1cc(O)cc(O)c1)NNC(=O)c1ccc(-n2cccc2)cc1` [Compound 3g, N’-(2-(3,5-dihydroxyphenoxy)acetyl)-4-(1H-pyrrol-1-yl) benzohydrazide], for which the MIC is 3.12 µg/mL (≈ 8.49 µM) against M. tuberculosis H37Rv, 1.6 µg/mL (≈ 4.36 µM) in the test on E. coli (Gram-negative) and 100 µg/mL (≈ 272 µM) in test [1]. This compound had an inhibition at 50 µM at InhA of 63%. The IC50 stood at 20 µM at MtDHFR, 216 ± 0.5 µM in test [2] and 216 ± 0.5 µM in test [3]. In addition, the “MtDHFR inhibition compared with trimethoprim” value at MtDHFR is recorded as “greater inhibition characteristics than trimethoprim”.
On to `Cc1cc(C)cc(OCC(=O)NNC(=O)c2ccc(-n3cccc3)cc2)c1` [Compound 3h, N’-(2-(3,5-dimethylphenoxy)acetyl)-4-(1H-pyrrol-1-yl) benzohydrazide], for which the MIC turned out to be 3.12 µg/mL (≈ 8.59 µM) in the test on M. tuberculosis H37Rv, 3.12 µg/mL (≈ 8.59 µM) in the test on E. coli (Gram-negative) and 100 µg/mL (≈ 275 µM) in test [1]. Moreover, at 50 µM the inhibition against InhA was 59%. The IC50 was determined as 19 µM against MtDHFR, 219 ± 0.6 µM in test [2] and 219 ± 0.1 µM in test [3]. Besides, at MtDHFR, the “MtDHFR inhibition compared with trimethoprim” value is listed as “greater inhibition characteristics than trimethoprim”.
In the case of `O=C(COc1cccc(O)c1)NNC(=O)c1ccc(-n2cccc2)cc1` [Compound 3i, N’-(2-(3-hydroxyphenoxy)acetyl)-4-(1H-pyrrol-1-yl)benzohydrazide], the values for the MIC (in the test on M. tuberculosis H37Rv; in the test on E. coli (Gram-negative); in test [1]) were 12.5 µg/mL (≈ 35.6 µM), 12.5 µg/mL (≈ 35.6 µM) and 100 µg/mL (≈ 285 µM), respectively.
In the case of `O=C(COc1ccccc1Cl)NNC(=O)c1ccc(-n2cccc2)cc1` [Compound 3j, N’-(2-(2-chlorophenoxy)acetyl)-4-(1H-pyrrol-1-yl)benzohydrazide], the values for the MIC (in the test on M. tuberculosis H37Rv; in the test with E. coli (Gram-negative); in test [1]) were 12.5 µg/mL (≈ 33.8 µM), 6.25 µg/mL (≈ 16.9 µM) and 100 µg/mL (≈ 270 µM), respectively.
For `Cc1ccc(C)n1-c1ccc(C(=O)NNC(=O)COc2ccccc2)cc1` [Compound 5a, 4-(2,5-dimethyl-1H-pyrrol-1-yl)-N’-(2-phenoxyacetyl) benzohydrazide], the MIC was determined as 6.25 µg/mL (≈ 17.2 µM) in the test on M. tuberculosis H37Rv, 6.25 µg/mL (≈ 17.2 µM) in the test on E. coli (Gram-negative) and 100 µg/mL (≈ 275 µM) in test [1]. At InhA, this compound showed an inhibition at 50 µM of 26%. Further, the IC50 against MtDHFR was determined as 98 µM.
As to `Cc1ccc(OCC(=O)NNC(=O)c2ccc(-n3c(C)ccc3C)cc2)cc1` [Compound 5b, 4-(2,5-dimethyl-1H-pyrrol-1-yl)-N’-(2-(p-tolyloxy)acetyl) benzohydrazide], the minimal inhibitory concentration (MIC) with M. tuberculosis H37Rv was determined as 12.5 µg/mL (≈ 33.1 µM); in the test with E. coli (Gram-negative), 12.5 µg/mL (≈ 33.1 µM); in test [1], 100 µg/mL (≈ 265 µM).
For `Cc1ccc(C)n1-c1ccc(C(=O)NNC(=O)COc2ccccc2O)cc1` [Compound 5c, 4-(2,5-dimethyl-1H-pyrrol-1-yl)-N’-(2-(2-hydroxyphenoxy)acetyl) benzohydrazide], the MIC was 12.5 µg/mL (≈ 32.9 µM) with M. tuberculosis H37Rv, 12.5 µg/mL (≈ 32.9 µM) in the test on E. coli (Gram-negative) and 100 µg/mL (≈ 264 µM) in test [1].
On to `Cc1ccc(OCC(=O)NNC(=O)c2ccc(-n3c(C)ccc3C)cc2)c(C)c1` [Compound 5d, 4-(2,5-dimethyl-1H-pyrrol-1-yl)-N’-(2-(2,4-dimethylphenoxy)acetyl) benzohydrazide], for which the MIC with M. tuberculosis H37Rv stood at 1.6 µg/mL (≈ 4.09 µM); in the test with E. coli (Gram-negative), 3.12 µg/mL (≈ 7.97 µM); in test [1], 100 µg/mL (≈ 255 µM). This compound also came in with an inhibition at 50 µM against InhA of 62%. Further, the IC50 on MtDHFR came to 56 µM; in test [2], 226 ± 0.5 µM; in test [3] it was 222 ± 0.5 µM. Moreover, the “MtDHFR inhibition compared with trimethoprim” value on MtDHFR is on record as “greater inhibition characteristics than trimethoprim”.
On to `Cc1cccc(OCC(=O)NNC(=O)c2ccc(-n3c(C)ccc3C)cc2)c1` [Compound 5e, 4-(2,5-dimethyl-1H-pyrrol-1-yl)-N’-(2-(m-tolyloxy)acetyl) benzohy drazide], for which the MIC in the test with M. tuberculosis H37Rv came out at 1.6 µg/mL (≈ 4.24 µM); with E. coli (Gram-negative) it was 3.12 µg/mL (≈ 8.27 µM); in test [1], 100 µg/mL (≈ 265 µM). For the same compound, 50 µM produced 66% inhibition on InhA. Moreover, the IC50 stood at 62 µM against MtDHFR, 220 ± 0.2 µM in test [2] and 219 ± 0.3 µM in test [3]. Besides, the “MtDHFR inhibition compared with trimethoprim” value at MtDHFR was “greater inhibition characteristics than trimethoprim”.
In the case of `Cc1ccc(C)n1-c1ccc(C(=O)NNC(=O)COc2ccc(Cl)cc2)cc1` [Compound 5f, N’-(2-(4-chlorophenoxy)acetyl)-4-(2,5-dimethyl-1H-pyrrol-1-yl) ben zohydrazide], the figures for the minimal inhibitory concentration (MIC) (against M. tuberculosis H37Rv; with E. coli (Gram-negative); in test [1]) were 3.12 µg/mL (≈ 7.84 µM), 6.25 µg/mL (≈ 15.7 µM) and 100 µg/mL (≈ 251 µM), respectively.
Taken in the same sequence, the figures for `Cc1ccc(C)n1-c1ccc(C(=O)NNC(=O)COc2cc(O)cc(O)c2)cc1` [Compound 5g, N’-(2-(3,5-dihydroxyphenoxy)acetyl)-4-(2,5-dimethyl-1H-pyrrol-1-yl) benzohydrazide] were 3.12 µg/mL (≈ 7.89 µM), 3.12 µg/mL (≈ 7.89 µM) and 100 µg/mL (≈ 253 µM).
Take `Cc1cc(C)cc(OCC(=O)NNC(=O)c2ccc(-n3c(C)ccc3C)cc2)c1` [Compound 5h, 4-(2,5-dimethyl-1H-pyrrol-1-yl)-N’-(2-(3,5-dimethylphenoxy)acetyl) benzohydrazide]: the MIC in the test with M. tuberculosis H37Rv amounted to 3.12 µg/mL (≈ 7.97 µM); in the test with E. coli (Gram-negative) it was 3.12 µg/mL (≈ 7.97 µM); in test [1], 100 µg/mL (≈ 255 µM).
In the case of `Cc1ccc(C)n1-c1ccc(C(=O)NNC(=O)COc2cccc(O)c2)cc1` [Compound 5i, 4-(2,5-dimethyl-1H-pyrrol-1-yl)-N’-(2-(3-hydroxyphenoxy)acetyl) benzohydrazide], the MIC came to 6.25 µg/mL (≈ 16.5 µM) in the test on M. tuberculosis H37Rv, 3.12 µg/mL (≈ 8.22 µM) in the test on E. coli (Gram-negative) and 100 µg/mL (≈ 264 µM) in test [1].
In the case of `Cc1ccc(C)n1-c1ccc(C(=O)NNC(=O)COc2ccccc2Cl)cc1` [Compound 5j, N’-(2-(2-chlorophenoxy)acetyl)-4-(2,5-dimethyl-1H-pyrrol-1-yl) ben zohydrazide], the MIC against M. tuberculosis H37Rv stood at 3.12 µg/mL (≈ 7.84 µM); with E. coli (Gram-negative), 6.25 µg/mL (≈ 15.7 µM); in test [1], 100 µg/mL (≈ 251 µM).
Consider `NNC(=O)c1ccncc1` [INH, Isoniazid, reference compound], for which the IC50 in test [2] and in test [3] was > 450 µM each time.
As to `NC(=O)c1cnccn1` [Pyrazinamide, reference compound], the MIC against M. tuberculosis H37Rv is 3.12 µg/mL (≈ 25.3 µM).
The same measure, in the same setting: under `[H]/N=C(/N)N[C@H]1[C@H](O)[C@@H](O)[C@H](O[C@@H]2O[C@@H](C)[C@](O)(C=O)[C@H]2O[C@@H]2O[C@@H](CO)[C@H](O)[C@@H](O)[C@@H]2NC)[C@@H](N/C(N)=N\[H])[C@@H]1O` [Streptomycin, reference compound] stands 6.25 µg/mL (≈ 10.7 µM).
